# Assay results reported in BindingDB's records for doi:10.1021/jm00164a044 (Niddk, 1990).
# Experiment: Muscarinic acetylcholine receptor binding affinity was determined using [3H]NMS for NG108-15 neuroblastoma cells
row,SMILES,Ki
1,CN(CC#CCN1CCCC1)C(=O)CCCCCCCNC(=O)OC(C)(C)C,1900 nM
2,CC(=O)N(C)CC#CCN1CCCC1,4500 nM
3,CN(CC#CCN1CCCC1)C(=O)CCCCCCN,3100 nM
4,CN(CC#CCN1CCCC1)C(=O)CCCCCCCN,700 nM
